Here are results for 16 compounds from ChEMBL document CHEMBL2177102, “Modulation of DNA repair by pharmacological inhibitors of the PIKK protein kinase family” (Bioorg Med Chem Lett, 2012).

Test [1] deals with DNA-dependent protein kinase catalytic subunit (Mus musculus, UniProt P97313). The test is described as follows: Inhibition of DNA-PK in C57BL6 mouse endothelial cells. It counts as cell-based, Endothelial cell.
The target in test [2] is Serine/threonine-protein kinase ATR (Homo sapiens, UniProt Q13535). The test can be described thus: Inhibition of flag-tagged ATR expressed in HEK293T cells using PHAS-1 as substrate after 20 mins by autoradiography. Details: species or system HEK-293T.
Test [3] concerns the target T1, DNA-dependent protein kinase catalytic subunit (Homo sapiens, UniProt P78527). The test can be described thus: Inhibition of DNA-PK.
For test [4], the target named is Heat shock protein HSP 90-beta (Homo sapiens, UniProt P08238). The test is described as follows: Inhibition of Hsp90.
Sequence of Heat shock protein HSP 90-beta (P08238 whole entry): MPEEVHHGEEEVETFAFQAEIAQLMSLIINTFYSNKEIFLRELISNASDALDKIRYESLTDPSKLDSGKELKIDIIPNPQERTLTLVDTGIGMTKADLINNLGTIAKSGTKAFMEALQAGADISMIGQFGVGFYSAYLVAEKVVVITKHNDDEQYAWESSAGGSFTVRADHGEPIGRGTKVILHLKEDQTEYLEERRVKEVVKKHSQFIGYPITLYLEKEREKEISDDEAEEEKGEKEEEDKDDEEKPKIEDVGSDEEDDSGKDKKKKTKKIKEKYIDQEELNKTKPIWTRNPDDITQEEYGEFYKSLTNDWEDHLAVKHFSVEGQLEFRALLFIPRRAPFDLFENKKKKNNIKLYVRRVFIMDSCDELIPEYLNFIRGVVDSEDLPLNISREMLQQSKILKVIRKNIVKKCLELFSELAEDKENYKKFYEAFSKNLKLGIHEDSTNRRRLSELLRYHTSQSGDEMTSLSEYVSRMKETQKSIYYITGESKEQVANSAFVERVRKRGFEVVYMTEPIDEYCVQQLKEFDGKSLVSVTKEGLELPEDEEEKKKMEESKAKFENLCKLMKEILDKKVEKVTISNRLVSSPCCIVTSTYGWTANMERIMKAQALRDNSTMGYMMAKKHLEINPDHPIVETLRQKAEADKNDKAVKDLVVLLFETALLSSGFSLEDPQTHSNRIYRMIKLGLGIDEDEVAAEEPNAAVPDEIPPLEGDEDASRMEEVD
The nature of test [5]: Inhibition of PI3K.
Test [6] concerns the target T1, DNA-dependent protein kinase catalytic subunit. The test is described as follows: Inhibition of DNA-PK assessed as inhibition of p53 peptide phosphorylation.
Test [7] has the same target. The test is described as follows: Competitive inhibition of DNA-PK.
The target of test [8] is Serine-protein kinase ATM (Homo sapiens, UniProt Q13315). The test is described as follows: Irreversible inhibition of ATM.
Test [9] has as its target T1, DNA-dependent protein kinase catalytic subunit. The test is described as follows: Inhibition of DNA-PK in human U1810 cells after 30 mins. It counts as cell-based.

Values joined by “and” are separate entries in the source; they are usually repeats but may differ in a detail not shown here. Equal values may be shown once. Some results are limits rather than exact numbers.

T1 sequence (P78527 whole entry): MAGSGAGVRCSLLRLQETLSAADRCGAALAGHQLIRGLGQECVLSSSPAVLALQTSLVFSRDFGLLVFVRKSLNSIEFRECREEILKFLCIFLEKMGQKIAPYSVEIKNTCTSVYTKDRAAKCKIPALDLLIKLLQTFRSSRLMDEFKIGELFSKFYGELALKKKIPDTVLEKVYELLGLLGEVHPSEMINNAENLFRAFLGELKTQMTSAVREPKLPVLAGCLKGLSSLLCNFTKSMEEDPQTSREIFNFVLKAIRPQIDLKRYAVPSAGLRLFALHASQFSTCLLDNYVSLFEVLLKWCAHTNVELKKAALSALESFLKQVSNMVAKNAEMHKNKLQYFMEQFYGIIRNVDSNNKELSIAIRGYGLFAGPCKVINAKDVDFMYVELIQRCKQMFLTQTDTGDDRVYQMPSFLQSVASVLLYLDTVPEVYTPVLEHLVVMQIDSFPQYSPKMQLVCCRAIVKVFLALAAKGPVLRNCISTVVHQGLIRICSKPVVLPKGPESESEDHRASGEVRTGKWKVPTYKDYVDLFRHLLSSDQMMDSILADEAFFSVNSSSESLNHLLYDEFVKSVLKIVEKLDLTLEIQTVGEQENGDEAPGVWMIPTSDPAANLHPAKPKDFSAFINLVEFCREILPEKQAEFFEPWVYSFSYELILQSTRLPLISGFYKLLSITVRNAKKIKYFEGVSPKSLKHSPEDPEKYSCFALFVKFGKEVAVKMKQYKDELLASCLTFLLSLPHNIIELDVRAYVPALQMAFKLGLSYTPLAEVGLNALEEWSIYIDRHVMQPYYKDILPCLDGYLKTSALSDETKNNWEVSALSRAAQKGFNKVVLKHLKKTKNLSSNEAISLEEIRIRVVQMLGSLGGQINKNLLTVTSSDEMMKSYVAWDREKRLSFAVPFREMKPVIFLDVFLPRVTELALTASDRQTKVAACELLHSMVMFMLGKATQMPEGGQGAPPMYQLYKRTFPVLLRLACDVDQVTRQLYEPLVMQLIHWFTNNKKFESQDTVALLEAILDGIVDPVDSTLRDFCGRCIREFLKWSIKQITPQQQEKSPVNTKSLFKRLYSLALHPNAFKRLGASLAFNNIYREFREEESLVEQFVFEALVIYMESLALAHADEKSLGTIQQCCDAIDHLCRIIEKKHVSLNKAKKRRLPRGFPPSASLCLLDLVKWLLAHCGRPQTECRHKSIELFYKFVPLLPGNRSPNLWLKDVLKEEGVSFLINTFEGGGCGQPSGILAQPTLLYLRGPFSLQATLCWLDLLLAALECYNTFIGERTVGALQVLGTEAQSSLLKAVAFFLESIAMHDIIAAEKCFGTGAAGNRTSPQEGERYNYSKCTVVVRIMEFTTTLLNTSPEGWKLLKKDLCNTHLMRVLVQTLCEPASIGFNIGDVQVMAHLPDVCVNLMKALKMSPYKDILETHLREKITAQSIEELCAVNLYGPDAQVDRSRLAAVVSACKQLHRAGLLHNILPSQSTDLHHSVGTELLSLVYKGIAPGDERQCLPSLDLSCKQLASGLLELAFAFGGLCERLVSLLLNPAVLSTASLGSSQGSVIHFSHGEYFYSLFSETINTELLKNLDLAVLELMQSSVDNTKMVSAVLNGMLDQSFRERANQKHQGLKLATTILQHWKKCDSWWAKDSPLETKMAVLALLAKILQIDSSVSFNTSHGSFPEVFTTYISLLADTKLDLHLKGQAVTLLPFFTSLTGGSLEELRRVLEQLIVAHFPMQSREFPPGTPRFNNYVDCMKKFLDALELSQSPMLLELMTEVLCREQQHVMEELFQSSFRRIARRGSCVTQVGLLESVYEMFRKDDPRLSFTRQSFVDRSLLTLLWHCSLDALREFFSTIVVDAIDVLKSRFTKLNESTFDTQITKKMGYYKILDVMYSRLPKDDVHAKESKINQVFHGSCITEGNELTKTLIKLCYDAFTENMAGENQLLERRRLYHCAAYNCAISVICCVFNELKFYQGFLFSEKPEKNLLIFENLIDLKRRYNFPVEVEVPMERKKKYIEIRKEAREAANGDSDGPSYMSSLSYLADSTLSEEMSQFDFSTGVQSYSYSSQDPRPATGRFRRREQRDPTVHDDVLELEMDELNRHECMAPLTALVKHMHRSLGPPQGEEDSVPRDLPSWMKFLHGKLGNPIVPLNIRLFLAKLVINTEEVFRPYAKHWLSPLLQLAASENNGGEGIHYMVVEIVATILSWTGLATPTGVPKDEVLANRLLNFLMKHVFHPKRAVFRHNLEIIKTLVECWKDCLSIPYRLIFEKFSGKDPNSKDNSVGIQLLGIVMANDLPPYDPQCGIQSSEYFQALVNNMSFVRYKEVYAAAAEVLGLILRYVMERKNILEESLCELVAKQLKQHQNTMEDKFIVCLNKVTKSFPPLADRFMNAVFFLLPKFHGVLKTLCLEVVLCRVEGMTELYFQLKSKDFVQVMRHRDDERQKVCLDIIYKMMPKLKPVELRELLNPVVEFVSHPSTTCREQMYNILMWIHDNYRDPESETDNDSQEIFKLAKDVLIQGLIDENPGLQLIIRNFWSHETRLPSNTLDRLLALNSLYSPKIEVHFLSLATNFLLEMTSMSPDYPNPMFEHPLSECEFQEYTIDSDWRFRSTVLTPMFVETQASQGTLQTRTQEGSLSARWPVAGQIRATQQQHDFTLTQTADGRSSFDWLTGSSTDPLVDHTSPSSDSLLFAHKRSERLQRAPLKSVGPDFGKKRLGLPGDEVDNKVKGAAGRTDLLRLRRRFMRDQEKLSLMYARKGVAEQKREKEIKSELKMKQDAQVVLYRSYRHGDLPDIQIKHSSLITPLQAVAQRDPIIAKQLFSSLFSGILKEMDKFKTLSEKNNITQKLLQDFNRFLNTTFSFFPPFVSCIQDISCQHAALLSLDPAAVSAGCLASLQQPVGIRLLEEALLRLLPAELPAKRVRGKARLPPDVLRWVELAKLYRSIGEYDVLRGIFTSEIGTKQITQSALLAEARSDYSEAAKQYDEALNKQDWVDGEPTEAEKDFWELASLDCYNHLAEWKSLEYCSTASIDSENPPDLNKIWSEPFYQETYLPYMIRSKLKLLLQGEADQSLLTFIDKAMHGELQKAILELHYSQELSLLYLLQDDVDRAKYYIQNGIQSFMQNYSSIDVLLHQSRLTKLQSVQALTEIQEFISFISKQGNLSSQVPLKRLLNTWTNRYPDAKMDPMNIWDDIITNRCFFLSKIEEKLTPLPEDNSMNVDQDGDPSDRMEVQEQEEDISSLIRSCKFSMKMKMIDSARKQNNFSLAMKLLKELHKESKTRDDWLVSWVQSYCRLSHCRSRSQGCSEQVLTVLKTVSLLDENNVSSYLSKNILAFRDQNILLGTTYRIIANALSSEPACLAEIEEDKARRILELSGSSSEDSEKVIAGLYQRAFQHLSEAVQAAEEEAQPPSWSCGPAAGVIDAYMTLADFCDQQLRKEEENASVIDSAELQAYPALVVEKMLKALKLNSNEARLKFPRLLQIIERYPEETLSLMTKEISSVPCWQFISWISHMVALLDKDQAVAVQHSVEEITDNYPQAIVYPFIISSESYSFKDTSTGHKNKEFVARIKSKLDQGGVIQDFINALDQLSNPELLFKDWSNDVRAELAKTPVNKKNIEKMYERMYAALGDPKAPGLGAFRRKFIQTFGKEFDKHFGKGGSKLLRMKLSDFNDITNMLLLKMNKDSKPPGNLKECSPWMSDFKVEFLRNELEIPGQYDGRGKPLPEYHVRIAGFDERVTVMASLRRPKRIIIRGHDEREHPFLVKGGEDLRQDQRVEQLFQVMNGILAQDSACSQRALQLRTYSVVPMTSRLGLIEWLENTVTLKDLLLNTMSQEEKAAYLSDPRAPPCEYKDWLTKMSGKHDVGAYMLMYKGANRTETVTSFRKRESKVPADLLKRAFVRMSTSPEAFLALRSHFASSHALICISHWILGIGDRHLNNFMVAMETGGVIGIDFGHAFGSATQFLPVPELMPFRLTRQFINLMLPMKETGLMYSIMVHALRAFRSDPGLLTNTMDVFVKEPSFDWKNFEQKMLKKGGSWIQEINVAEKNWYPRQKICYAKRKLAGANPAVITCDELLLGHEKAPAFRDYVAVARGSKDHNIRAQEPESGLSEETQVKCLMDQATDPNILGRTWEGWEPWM

Consider `CC(=O)c1ccc(N2CCOCC2)cc1O`, for which the IC50 in test [1] stood at 0.12 µM.

For the compound `COc1cc2c(c(OC)c1OC)-c1c(cc3c(c1OC)OCO3)CC(C)C(C)C2` (stereo not drawn) [SCHISANDRIN B], inhibition in test [2] was half-maximal at 7.3 µM (IC50).

Regarding `CO[C@@H]1/C=C/C=C(\C)C(=O)NC2=CC(=O)C(NCCCCCCOc3ccc4c(=O)cc(N5CCOCC5)oc4c3)=C(C[C@@H](C)C[C@@H](OC)[C@@H](O)[C@H](C)/C=C(\C)[C@H]1OC(N)=O)C2=O` (stereo in doubt), the IC50 was 6.1 µM in [3] and > 500 µM in test [5]. A half-maximal response in test [4] (EC50) required 4 µM.

In the case of `COc1cc(Br)c(C=O)cc1OC`, the half-inhibitory concentration (IC50) in test [6] was 30 µM.

Regarding `CC(CN(C)C)S(=O)(=O)c1ccc(-c2cnc(N)c(C(=O)Nc3ccccc3)n2)cc1` (stereo not drawn), the inhibition constant Ki in [3] was 0.006 µM.

In turn, `Nc1ncc(-c2ccccc2)nc1C(=O)Nc1ccccc1` displayed a half-inhibitory concentration (IC50) in test [7] of 0.62 µM.

For the compound `Cc1ccc2c(sc3ccccc32)c1-c1cccc2c(=O)cc(N3CCOCC3)oc12`, the IC50 in test [3] is 1.2 µM and 2.5 µM.

As for `COc1cc(C=O)ccc1O` [VANILLIN], the half-inhibitory concentration (IC50) in test [6] stood at 1500 µM.

In [8], `C=C1C(=O)OC[C@@H]1C(=O)N1Cc2cc3ccccc3nc2C1` showed an IC50 of 0.6 µM.

Consider `N#Cc1cc(-c2ccncc2)c(/C=N/N)nc1O`, for which the half-inhibitory concentration (IC50) in [7] stood at 8 µM.

On to `O=c1cc(-c2ccccc2)oc2c(-c3ccccc3)c(N3CCOCC3)cc(O)c12`, for which inhibition in test [1] was half-maximal at 0.034 µM (IC50).

The compound `CCc1[nH]c(/C=C2\C(=O)Nc3ccc(S(=O)(=O)Nc4ccccc4)cc32)c(CC)c1CCC(=O)O` came in with an IC50 in test [7] of 0.13 µM.

As for `C=C1C(=O)OCC1(C(=O)OCC)C(=O)OCC`, in test [8], the IC50 was determined as 0.25 µM.

Compound `CS(=O)(=O)c1ccc(-c2cnc(N)c(C(=O)Nc3ccccc3)n2)cc1` gave an IC50 in test [3] of 0.026 µM.

As to `COc1cc(C=O)c([N+](=O)[O-])cc1OC`, in [6], the half-inhibitory concentration (IC50) was 15 µM.

In test [9], `CN1CCN(CCCN2c3ccccc3Sc3ccc(C(F)(F)F)cc32)CC1` [TRIFLUOPERAZINE] had an IC50 of 100 µM.

What is called IC50 is the midpoint of a concentration-inhibition curve. As a reminder, the EC50 is the concentration giving half of the maximal effect. One may read the Ki as a measure of affinity in units of concentration, obtained from inhibition or displacement. Read a low Ki as higher affinity.
